Measurements: ChEMBL document CHEMBL1123949, “Molecular structure of fluoxetine hydrochloride, a highly selective serotonin-uptake inhibitor” (J Med Chem, 1988)

Key:
[1] = organism: Rattus norvegicus; assay: In vitro inhibition of norepinephrine (NE) uptake in crude rat brain synaptosomes; assay type: functional, organism-based
[2] = organism: Rattus norvegicus; assay: In vitro inhibition of serotonin (5-HT) uptake in crude rat brain synaptosomes; assay type: functional, organism-based
[3] = organism: Rattus norvegicus; assay: In vitro inhibition of norepinephrine (NE) uptake in crude rat brain synaptosomes (% inhibition at maximum concentration)

Structure (SMILES) | IC50 [1] [µM] | IC50 [2] [µM] | IC50 [3] [µM]
CC(N)C(=O)OC(C)(C)Cc1ccc(Cl)cc1 (stereo not drawn) [ALAPROCLATE] | > 34 | 0.7 | –
CNCCCOc1ccc(C(F)(F)F)cc1 | > 10 | 3 | –
COc1ccc(OC[C@H]2CN(C)CC[C@@H]2c2ccccc2)cc1 [FEMOXETINE] | 0.41 | 0.0083 | –
CNCCC(Oc1ccccc1OC)c1ccccc1 (stereo not drawn) [NISOXETINE] | 0.01 | 2 | –
CN[C@@H]1CCC(c2ccccc2)c2ccccc21 (stereo partly drawn) | 0.018 | 0.84 | –
CNCCC(Oc1ccc(C(F)(F)F)cc1)c1ccccc1 (stereo not drawn) [FLUOXETINE] | – | 0.07 | > 10
NC12CCC(c3ccccc3)(CC1)CC2 | 0.08 | 0.095 | –
CNCC[C@@H](Oc1ccccc1C)c1ccccc1 [ATOMOXETINE] | 0.004 | 1.5 | –
NC12CCC(c3ccc(Br)cc3)(CC1)CC2 | 54 | 0.68 | –
